Measured values: patent US12655127B2, “Fused ring compound as Wee-1 inhibitor” (WIGEN BIOMEDICINE TECHNOLOGY (SHANGHAI) CO., LTD., priority 2021, dated 2026)

biological target: recombinant protein Wee-1 (Homo sapiens, UniProt P30291); test: Inhibition of enzymatic activity of recombinant protein Wee-1 (HTRF); type: biochemical
Experimental: The inhibitory effect of the compounds on the enzyme activity of recombinant protein Wee-1 was determined by HTRF. The procedures are as follows:
After DMSO or serially diluted compounds (up to 200 nM, 1:5 serially diluted) and recombinant proteins were co-incubated in a kinase buffer at 37° C. for 30 min Fluorescein-PolyGAT and ATP were added, and then the reaction was started by the addition of a substrate. After incubation at room temperature for 90 min, an antibody and a detection solution were added, and after further incubation at room temperature for 60 min, fluorescence values were detected (excitation wavelength: 340 nm, emission wavelengths: 495 and 520 nm). The 520 nm/495 nm fluorescence intensity ratio value was calculated, and compared with that of the DMSO group, and then the inhibition percentages and IC50 values of the compounds were calculated.

recombinant protein Wee-1, sequence (P30291 whole entry): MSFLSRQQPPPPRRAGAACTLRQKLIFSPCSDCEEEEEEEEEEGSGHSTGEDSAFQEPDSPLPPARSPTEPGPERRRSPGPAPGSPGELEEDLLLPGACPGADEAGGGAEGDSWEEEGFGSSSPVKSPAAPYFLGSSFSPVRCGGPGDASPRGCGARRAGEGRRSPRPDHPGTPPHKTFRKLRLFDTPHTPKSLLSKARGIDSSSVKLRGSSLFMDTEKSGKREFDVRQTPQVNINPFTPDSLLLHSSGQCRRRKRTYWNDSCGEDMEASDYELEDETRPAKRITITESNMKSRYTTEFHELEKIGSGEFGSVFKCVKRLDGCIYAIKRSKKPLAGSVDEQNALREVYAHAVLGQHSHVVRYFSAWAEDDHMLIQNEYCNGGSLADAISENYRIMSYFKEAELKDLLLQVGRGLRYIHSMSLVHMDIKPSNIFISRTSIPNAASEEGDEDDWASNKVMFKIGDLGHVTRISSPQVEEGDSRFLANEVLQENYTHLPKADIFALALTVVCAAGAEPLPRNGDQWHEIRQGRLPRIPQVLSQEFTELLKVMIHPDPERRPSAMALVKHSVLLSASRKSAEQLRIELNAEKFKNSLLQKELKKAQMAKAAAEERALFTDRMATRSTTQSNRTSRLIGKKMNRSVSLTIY

IC50 [nM]	Structure (SMILES)
≤ 10	CN1Cc2cc(Nc3ncc(C#N)c(Nc4cccc(N=S(C)(C)=O)n4)n3)cc3c2C(CCCO3)C1 (stereo not shown) [Compound 74]
≤ 10	CN1Cc2cc(Nc3ncc(C#N)c(Nc4cccc(N=S(C)(C)=O)n4)n3)cc3c2C(CCCS3)C1 (stereo not shown) [Compound 75]
≤ 10	CN1Cc2cc(Nc3ncc(C#N)c(Nc4cccc(N=S(C)(C)=O)n4)n3)cc3c2C(CCOC3)C1 (stereo not shown) [Compound 76]
≤ 10	CN1Cc2cc(Nc3ncc(C#N)c(Nc4cccc(N=S(C)(C)=O)n4)n3)cc3c2C(CCSC3)C1 (stereo not shown) [Compound 77]
≤ 10	CN1Cc2cc(Nc3ncc(C#N)c(Nc4cccc(N=S(C)(C)=O)n4)n3)cc3c2C(COCC3)C1 (stereo not shown) [Compound 78]
≤ 10	CN1Cc2cc(Nc3ncc(C#N)c(Nc4cccc(N=S(C)(C)=O)n4)n3)cc3c2C(CSCC3)C1 (stereo not shown) [Compound 79]
≤ 10	CN1Cc2cc(Nc3ncc(C#N)c(Nc4cccc(N=S(C)(C)=O)n4)n3)cc3c2C(C1)OCCC3 (stereo not shown) [Compound 80]
≤ 10	CN1Cc2cc(Nc3ncc(C#N)c(Nc4cccc(N=S(C)(C)=O)n4)n3)cc3c2C(C1)SCCC3 (stereo not shown) [Compound 81]
≤ 10	CN1Cc2cc(Nc3ncc(C#N)c(Nc4cccc(N=S(C)(C)=O)n4)n3)cc3c2C(CCCCO3)C1 (stereo not shown) [Compound 82]
≤ 10	CN1Cc2cc(Nc3ncc(C#N)c(Nc4cccc(N=S(C)(C)=O)n4)n3)cc3c2C(CCCCS3)C1 (stereo not shown) [Compound 83]
≤ 10	CN1Cc2cc(Nc3ncc(C#N)c(Nc4cccc(N=S(C)(C)=O)n4)n3)cc3c2C(C=CCC3)C1 (stereo not shown) [Compound 84]
≤ 10	CN1Cc2cc(Nc3ncc(C#N)c(Nc4cccc(N=S(C)(C)=O)n4)n3)cc3c2C(CC=CC3)C1 (stereo not shown) [Compound 85]
≤ 10	CN1Cc2cc(Nc3ncc(C#N)c(Nc4cccc(N=S(C)(C)=O)n4)n3)cc3c2C(CCC=C3)C1 (stereo not shown) [Compound 86]
≤ 10	CN1Cc2cc(Nc3ncc(C#N)c(Nc4cccc(N=S(C)(C)=O)n4)n3)cc3c2C1CCCC3 (stereo not shown) [Compound 88]
≤ 10	CN(C)C1Cc2cc(Nc3ncc(C#N)c(Nc4cccc(N=S(C)(C)=O)n4)n3)cc3c2C(CCC3)C1 (stereo not shown) [Compound 89]
≤ 10	CN(C)C1Cc2cc(Nc3ncc(C#N)c(Nc4cccc(N=S(C)(C)=O)n4)n3)cc3c2C1CCC3 (stereo not shown) [Compound 90]
≤ 10	CCS(=O)(CC)=Nc1cccc(Nc2nc(Nc3cc4c5c(c3)CN(C)CC5CCC4)ncc2C#N)n1 (stereo not shown) [Compound 91]
≤ 10	CN1Cc2cc(Nc3ncc(C#N)c(Nc4cccc(N=S5(=O)CCC5)n4)n3)cc3c2C(CCC3)C1 (stereo not shown) [Compound 92]
≤ 10	CN1Cc2cc(Nc3ncc(C#N)c(Nc4cccc(N=S5(=O)CCCC5)n4)n3)cc3c2C(CCC3)C1 (stereo not shown) [Compound 93]
≤ 10	CN1Cc2cc(Nc3ncc(C(F)(F)F)c(Nc4cccc(N=S(C)(C)=O)n4)n3)cc3c2C(CCC3)C1 (stereo not shown) [Compound 94]
≤ 10	CN1Cc2cc(Nc3ncc(C4CC4)c(Nc4cccc(N=S(C)(C)=O)n4)n3)cc3c2C(CCC3)C1 (stereo not shown) [Compound 95]
≤ 10	CN1Cc2cc(Nc3ncc(P(C)(C)=O)c(Nc4cccc(N=S(C)(C)=O)n4)n3)cc3c2C(CCC3)C1 (stereo not shown) [Compound 96]

IC50 [nM]	Structure (SMILES)
≤ 10	CN1Cc2cc(Nc3ncc(S(C)(=O)=O)c(Nc4cccc(N=S(C)(C)=O)n4)n3)cc3c2C(CCC3)C1 (stereo not shown) [Compound 97]
≤ 10	CN1Cc2cc(Nc3ncc(C(N)=O)c(Nc4cccc(N=S(C)(C)=O)n4)n3)cc3c2C(CCC3)C1 (stereo not shown) [Compound 98]
≤ 10	CN1Cc2cc(Nc3ncc(-c4ccoc4)c(Nc4cccc(N=S(C)(C)=O)n4)n3)cc3c2C(CCC3)C1 (stereo not shown) [Compound 99]
≤ 10	CN1Cc2cc(Nc3ncc(Br)c(Nc4cccc(N=S(C)(C)=O)n4)n3)cc3c2C(CCC3)C1 (stereo not shown) [Compound 100]
≤ 10	CN1Cc2cc(Nc3ncc(C#N)c(Nc4cccc(N=S(C)(C)=O)c4)n3)cc3c2C(CCC3)C1 (stereo not shown) [Compound 101]
≤ 10	CN1Cc2cc(Nc3ncc(C#N)c(Nc4ccnc(N=S(C)(C)=O)c4)n3)cc3c2C(CCC3)C1 (stereo not shown) [Compound 102]
≤ 10	CN1Cc2cc(Nc3ncc(C#N)c(Nc4cncc(N=S(C)(C)=O)c4)n3)cc3c2C(CCC3)C1 (stereo not shown) [Compound 103]
≤ 10	CN1Cc2cc(Nc3ncc(C#N)c(Nc4cc(N=S(C)(C)=O)ccn4)n3)cc3c2C(CCC3)C1 (stereo not shown) [Compound 104]
≤ 10	CN1Cc2cc(Nc3ncc(C#N)c(Nc4ccnc(N=S(C)(C)=O)n4)n3)cc3c2C(CCC3)C1 (stereo not shown) [Compound 106]
≤ 10	CN1Cc2cc(Nc3ncc(C#N)c(Nc4nccc(N=S(C)(C)=O)n4)n3)cc3c2C(CCC3)C1 (stereo not shown) [Compound 107]
≤ 10	CN1Cc2cc(Nc3ncc(C#N)c(Nc4cc(F)cc(N=S(C)(C)=O)n4)n3)cc3c2C(CCC3)C1 (stereo not shown) [Compound 111]
≤ 10	CN1Cc2cc(Nc3ncc(C#N)c(-n4ccc5c(N=S(C)(C)=O)cccc54)n3)cc3c2C(CCC3)C1 (stereo not shown) [Compound 113]
≤ 10	CN1Cc2cc(Nc3ncc(C#N)c(N4CCc5c(N=S(C)(C)=O)cccc54)n3)cc3c2C(CCC3)C1 (stereo not shown) [Compound 114]
≤ 10	CN1Cc2cc(Nc3ncc(C#N)c(-c4c[nH]c5c(N=S(C)(C)=O)cccc45)n3)cc3c2C(CCC3)C1 (stereo not shown) [Compound 115]
≤ 10	CN1Cc2cc(Nc3ncc(C#N)c(-c4cn(C)c5c(N=S(C)(C)=O)cccc45)n3)cc3c2C(CCC3)C1 (stereo not shown) [Compound 116]
≤ 10	CN1Cc2cc(Nc3ncc(C#N)c(-n4cnc5c(N=S(C)(C)=O)cccc54)n3)cc3c2C(CCC3)C1 (stereo not shown) [Compound 117]
≤ 10	CN1Cc2cc(Nc3ncc(C#N)c(Nc4nc(N=S(C)(C)=O)cc5[nH]ccc45)n3)cc3c2C(CCC3)C1 (stereo not shown) [Compound 118]
≤ 10	CN1Cc2cc(Nc3ncc(C#N)c(Nc4nc(N=S(C)(C)=O)cc5c4CCN5)n3)cc3c2C(CCC3)C1 (stereo not shown) [Compound 119]
≤ 10	CN1Cc2cc(Nc3ncc(C#N)c(Nc4cc5c(c(N=S(C)(C)=O)n4)CCC5)n3)cc3c2C(CCC3)C1 (stereo not shown) [Compound 120]
≤ 10	C=Cc1cc(N=S(C)(C)=O)nc(Nc2nc(Nc3cc4c5c(c3)CN(C)CC5CCC4)ncc2C#N)c1 (stereo not shown) [Compound 122]
≤ 10	COc1ccc(Nc2nc(Nc3cc4c5c(c3)CN(C)CCC5CCC4)ncc2C#N)nc1N=S(C)(C)=O (stereo not shown) [Compound 123]
≤ 10	C=Cc1cc(N=S(C)(C)=O)nc(Nc2nc(Nc3cc4c5c(c3)CC(N(C)C)CCC5CCC4)ncc2C#N)c1 (stereo not shown) [Compound 124]

IC50 [nM]	Structure (SMILES)
≤ 10	CN1Cc2cc(Nc3ncc(C#N)c(Nc4cccc(N=S(C)(C)=O)n4)n3)cc3c2C2(CCC3)CC12 (stereo not shown) [Compound 125]
≤ 10	CN1Cc2cc(Nc3ncc(C#N)c(Nc4cccc(N=S(C)(C)=O)n4)n3)cc3c2C(C1)CN(C)C3 [Compound 126]
≤ 10	CN1Cc2cc(Nc3ncc(C#N)c(Nc4cccc(N=S(C)(C)=O)n4)n3)cc3c2C(CNC3)C1 (stereo not shown) [Compound 127]
≤ 10	CC(=O)N1Cc2cc(Nc3ncc(C#N)c(Nc4cccc(N=S(C)(C)=O)n4)n3)cc3c2C(CN(C)C3)C1 (stereo not shown) [Compound 128]
≤ 10	CN1Cc2cc(Nc3ncc(C#N)c(Nc4cccc(N=S(C)(C)=O)n4)n3)cc3c2C(C1)N(C)CC3 (stereo not shown) [Compound 129]
≤ 10	CN1Cc2cc(Nc3ncc(C#N)c(Nc4cccc(N=S(C)(C)=O)n4)n3)cc3c2C(C1)NCC3 (stereo not shown) [Compound 130]
≤ 10	CN1Cc2cc(Nc3ncc(C#N)c(Nc4cccc(N=S(C)(C)=O)n4)n3)cc3c2C(CCN3C)C1 (stereo not shown) [Compound 131]
≤ 10	CN1Cc2cc(Nc3ncc(C#N)c(Nc4cccc(N=S(C)(C)=O)n4)n3)cc3c2C(CCN3)C1 (stereo not shown) [Compound 132]
≤ 10	CN1Cc2cc(Nc3ncc(C#N)c(Nc4cccc(N=S(C)(C)=O)n4)n3)cc3c2C(CCC3)C1(C)C (stereo not shown) [Compound 133]
≤ 10	[2H]C([2H])([2H])N1Cc2cc(Nc3ncc(C#N)c(Nc4cccc(N=S(C)(C)=O)n4)n3)cc3c2C(CCC3)C1 (stereo not shown) [Compound 134]
≤ 10	[2H]c1ccc(Nc2nc(Nc3cc4c5c(c3)CN(C)CC5CCC4)ncc2C#N)nc1N=S(C)(C)=O (stereo not shown) [Compound 135]
≤ 10	[2H]C([2H])([2H])S(=O)(=Nc1cccc(Nc2nc(Nc3cc4c5c(c3)CN(C)CC5CCC4)ncc2C#N)n1)C([2H])([2H])[2H] (stereo not shown) [Compound 136]
≤ 10	[2H]C1([2H])C2CCCc3cc(Nc4ncc(C#N)c(Nc5cccc(N=S(C)(C)=O)n5)n4)cc(c32)CN1C (stereo not shown) [Compound 279]
≤ 10	[2H]C1([2H])c2cc(Nc3ncc(C#N)c(Nc4cccc(N=S(C)(C)=O)n4)n3)cc3c2C(CCC3)CN1C (stereo not shown) [Compound 280]
≤ 10	CN1Cc2cc(Nc3ncc(C#N)c(Nc4cccc(N=S(C)(C)=O)n4)n3)cc3c2C(CCC3O)C1 (stereo not shown) [Compound 289]
≤ 10	CN1Cc2cc(Nc3ncc(C#N)c(Nc4cccc(N=S(C)(C)=O)n4)n3)cc3c2C(CCC3N)C1 (stereo not shown) [Compound 290]
≤ 10	CN1Cc2cc(Nc3ncc(C#N)c(Nc4cccc(N=S(C)(C)=O)n4)n3)cc3c2C(CC(O)C3)C1 (stereo not shown) [Compound 291]
≤ 10	CN1Cc2cc(Nc3ncc(C#N)c(Nc4cccc(N=S(C)(C)=O)n4)n3)cc3c2C(CC(N)C3)C1 (stereo not shown) [Compound 292]
≤ 10	CN1Cc2cc(Nc3ncc(C#N)c(Nc4cccc(N=S(C)(C)=O)n4)n3)cc3c2C(C1)C(O)CC3 (stereo not shown) [Compound 293]
≤ 10	CN1Cc2cc(Nc3ncc(C#N)c(Nc4cccc(N=S(C)(C)=O)n4)n3)cc3c2C(C1)C(N)CC3 (stereo not shown) [Compound 294]
